Results published in publication PMC9005681, “Use of AD Informer Set compounds to explore validity of novel targets in Alzheimer's disease pathology” (Alzheimer's & Dementia : Translational Research & Clinical …, 2022).
Like-named read-outs stand apart in the source and are kept apart here.

Tests used:
[1] = system: HMC3 (human microglia) immortalized cell line; settings: 10 μM, human immortalized microglial cells; cited from earlier work
MerTK = system: MerTK; parameters: method as in PubMed 25068800, 27649555; settings: published affinity; ref PubMed 25068800, 27649555; cited from earlier work
Alpha1D receptor = target: T1, Alpha1D receptor (Homo sapiens, UniProt P25100); assay: PDSP secondary binding, Alpha1D; parameters: species or system human or rodent
T1 construct: expressed in transfected cells
T1 sequence (P25100 whole entry): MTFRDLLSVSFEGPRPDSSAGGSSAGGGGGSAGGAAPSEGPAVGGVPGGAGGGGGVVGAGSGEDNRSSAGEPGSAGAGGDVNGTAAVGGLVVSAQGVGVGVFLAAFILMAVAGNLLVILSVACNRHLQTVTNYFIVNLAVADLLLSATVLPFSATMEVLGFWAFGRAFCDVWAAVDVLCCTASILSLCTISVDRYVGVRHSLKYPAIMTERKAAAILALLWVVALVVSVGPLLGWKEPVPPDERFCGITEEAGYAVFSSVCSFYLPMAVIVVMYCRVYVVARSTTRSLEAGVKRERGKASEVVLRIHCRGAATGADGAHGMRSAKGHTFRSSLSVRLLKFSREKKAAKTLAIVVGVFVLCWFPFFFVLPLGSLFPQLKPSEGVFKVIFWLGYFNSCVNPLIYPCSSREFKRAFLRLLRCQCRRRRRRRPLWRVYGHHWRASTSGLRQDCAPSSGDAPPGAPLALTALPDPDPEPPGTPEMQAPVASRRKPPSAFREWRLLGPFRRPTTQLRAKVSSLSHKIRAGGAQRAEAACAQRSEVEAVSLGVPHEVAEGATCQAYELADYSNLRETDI
Procedure: (§1) GPCR panel: Screening against the receptors within the PDSP panel offers an assessment of off-target pharmacological activity at cloned human or rodent CNS receptors, channels, and transporters that could confound CNS-related phenotypes. A total of 46–47 primary binding assays were run in quadruplicate on these compounds at 10 μM, with follow-up secondary binding assays in 11-point dose-response in triplicate for select compounds versus select receptors. Secondary binding assays were executed for all receptors where test compound displaced an average of >50% of radio-labeled standard ligand. As an exception, no secondary assays were carried out for H3, PBR, or GABAA. […]

serotonin transporter = target: T2, serotonin transporter (Homo sapiens, UniProt P31645); assay: PDSP secondary binding, serotonin transporter; parameters: species or system human or rodent
T2 construct: expressed in transfected cells
T2 sequence (P31645 whole entry): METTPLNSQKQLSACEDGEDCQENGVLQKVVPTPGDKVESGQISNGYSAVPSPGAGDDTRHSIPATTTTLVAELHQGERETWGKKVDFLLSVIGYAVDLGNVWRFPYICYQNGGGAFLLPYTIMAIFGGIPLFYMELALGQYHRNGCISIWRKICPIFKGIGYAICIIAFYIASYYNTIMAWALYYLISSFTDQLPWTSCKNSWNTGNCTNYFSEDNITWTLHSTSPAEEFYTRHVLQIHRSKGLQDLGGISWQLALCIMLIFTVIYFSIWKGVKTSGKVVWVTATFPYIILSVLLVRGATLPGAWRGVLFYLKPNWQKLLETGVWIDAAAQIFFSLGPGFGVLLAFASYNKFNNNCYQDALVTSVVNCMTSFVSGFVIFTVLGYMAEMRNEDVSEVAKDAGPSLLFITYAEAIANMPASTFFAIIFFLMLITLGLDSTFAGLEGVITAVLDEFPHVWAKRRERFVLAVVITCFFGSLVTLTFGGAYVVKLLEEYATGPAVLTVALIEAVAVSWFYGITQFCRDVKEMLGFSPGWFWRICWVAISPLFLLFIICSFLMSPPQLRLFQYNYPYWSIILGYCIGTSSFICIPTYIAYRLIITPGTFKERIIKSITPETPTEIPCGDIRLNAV
Procedure: as §1

FLT3 = system: FLT3; parameters: method as in PubMed 25068800, 27649555; settings: published affinity; ref PubMed 25068800, 27649555; cited from earlier work
[2] = target: T3, norepinephrine transporter (Homo sapiens, UniProt P23975); assay: PDSP secondary binding, norepinephrine transporter; parameters: species or system human or rodent
T3 construct: expressed in transfected cells
T3 sequence (P23975 whole entry): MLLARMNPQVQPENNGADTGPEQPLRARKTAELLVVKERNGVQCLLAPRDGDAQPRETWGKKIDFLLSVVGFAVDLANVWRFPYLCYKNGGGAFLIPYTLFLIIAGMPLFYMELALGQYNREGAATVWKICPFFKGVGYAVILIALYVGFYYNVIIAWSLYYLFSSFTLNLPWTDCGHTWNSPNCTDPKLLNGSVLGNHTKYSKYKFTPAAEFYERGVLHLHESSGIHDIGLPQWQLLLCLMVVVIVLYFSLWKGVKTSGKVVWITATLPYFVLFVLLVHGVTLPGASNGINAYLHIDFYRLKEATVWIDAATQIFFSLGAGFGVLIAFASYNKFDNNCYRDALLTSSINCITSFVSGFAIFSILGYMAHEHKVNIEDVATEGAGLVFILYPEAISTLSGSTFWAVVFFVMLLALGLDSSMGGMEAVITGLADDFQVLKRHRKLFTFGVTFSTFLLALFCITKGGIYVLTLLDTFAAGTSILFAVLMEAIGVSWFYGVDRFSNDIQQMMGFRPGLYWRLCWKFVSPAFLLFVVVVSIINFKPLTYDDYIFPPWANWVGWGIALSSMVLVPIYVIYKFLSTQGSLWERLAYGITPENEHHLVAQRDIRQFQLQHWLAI
Procedure: as §1

[3] = mouse, IV, published PK values, cited from earlier work
H4 receptor = target: T4, H4 receptor (Homo sapiens, UniProt Q9H3N8); assay: PDSP secondary binding, H4; parameters: species or system human or rodent
T4 construct: expressed in transfected cells
T4 sequence (Q9H3N8 whole entry): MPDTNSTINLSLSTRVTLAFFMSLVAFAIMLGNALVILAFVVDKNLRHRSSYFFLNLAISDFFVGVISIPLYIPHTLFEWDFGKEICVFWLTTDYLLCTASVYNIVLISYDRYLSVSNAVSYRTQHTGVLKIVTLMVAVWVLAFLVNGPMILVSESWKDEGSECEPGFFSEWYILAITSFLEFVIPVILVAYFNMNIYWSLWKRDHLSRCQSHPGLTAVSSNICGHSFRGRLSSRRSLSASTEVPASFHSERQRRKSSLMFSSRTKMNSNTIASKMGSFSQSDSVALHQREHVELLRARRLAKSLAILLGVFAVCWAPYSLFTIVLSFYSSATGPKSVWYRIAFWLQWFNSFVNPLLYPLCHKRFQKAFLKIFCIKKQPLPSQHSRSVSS
Procedure: as §1

5-HT2A receptor = target: T5, 5-HT2A receptor (Homo sapiens, UniProt P28223); assay: PDSP secondary binding, 5-HT2A; parameters: species or system human or rodent
T5 construct: expressed in transfected cells
T5 sequence (P28223 whole entry): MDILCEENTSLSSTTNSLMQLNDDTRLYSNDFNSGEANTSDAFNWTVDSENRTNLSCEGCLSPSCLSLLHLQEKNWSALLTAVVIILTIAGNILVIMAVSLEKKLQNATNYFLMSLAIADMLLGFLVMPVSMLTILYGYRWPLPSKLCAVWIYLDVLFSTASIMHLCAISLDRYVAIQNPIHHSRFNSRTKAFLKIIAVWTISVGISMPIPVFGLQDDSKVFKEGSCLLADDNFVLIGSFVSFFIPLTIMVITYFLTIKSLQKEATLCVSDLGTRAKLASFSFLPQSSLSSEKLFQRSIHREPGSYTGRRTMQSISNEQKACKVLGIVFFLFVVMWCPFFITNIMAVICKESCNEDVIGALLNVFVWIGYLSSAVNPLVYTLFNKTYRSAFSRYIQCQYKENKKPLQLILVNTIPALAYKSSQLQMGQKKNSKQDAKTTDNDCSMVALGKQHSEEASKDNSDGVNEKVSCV
Procedure: as §1

CAPN2 = system: CAPN2; parameters: method as in Probe Miner, PubMed 9637399, 31133534, 30052328; settings: published affinity; ref Probe Miner, PubMed 9637399, 31133534, 30052328; cited from earlier work
EPHX2 = system: EPHX2; parameters: method as in column References for potency and dosing (the 5th table c13); settings: cited from earlier work
[4] = cited from earlier work
human nerve cells = system: human nerve cells; parameters: method as in PMID 31378059; settings: cited from earlier work
[5] = system: tau hyperphosphorylation species (Ser396 and Ser404); parameters: method as in PMID 32488482; settings: 5 mg/kg/day; cited from earlier work
[6] = system: N2a cells stably expressing wild-type PS1 and myc-tagged Swedish mutant APP (APPsw); parameters: method as in PMID 16354722; settings: cited from earlier work

## CCCCNc1ncc2c(-c3ccc(CN4CCN(C)CC4)cc3)cn([C@H]3CC[C@H](O)CC3)c2n1 [UNC2025C, UNC2025]
[1]
  Human microglial cytotoxicity at 10 μM (<70% control): Y (The compound was found to be cytotoxic (cell count threshold: <70% control) when human immortalized microglial cells were dosed at 10 μM (Y: yes))
MerTK
  Reported on-target biochemical potency, MERTK: 0.74 nM
Alpha1D receptor; Receptor Alpha1D, secondary assay, read-out: Ki (nM) 1
  Ki: 4960 nM
Alpha1D receptor; calculated Ki, secondary binding assay, read-out: Ki Alpha1D
  Ki: 5000 nM
Serotonin transporter; Receptor SERT, secondary assay, read-out: Ki (nM) 1
  Ki: 906 nM
Serotonin transporter; calculated Ki, secondary binding assay, read-out: Ki serotonin transporter
  Ki: 900 nM
FLT3
  Reported on-target biochemical potency, FLT3: 0.8 nM
[2]; Receptor NET, secondary assay, read-out: Ki (nM) 1
  Ki: 1400 nM
[2]; calculated Ki, secondary binding assay, read-out: Ki norepinephrine transporter
  Ki: 1400 nM
[3]; 3.0 mg/kg
  AUClast: 9.78 µM·h
  Cmax: 4.36 µM
  Vss: 2.33 L/kg
H4 receptor; Receptor H4, secondary assay, read-out: Ki (nM) 1
  Ki: 4000 nM
H4 receptor; calculated Ki, secondary binding assay, read-out: Ki H4
  Ki: 4000 nM
5-HT2A receptor; Receptor 5-HT2A, secondary assay, run 1, read-out: Ki (nM) 1
  Ki: 366 nM
5-HT2A receptor; Receptor 5-HT2A, secondary assay, run 2, read-out: Ki (nM) 2
  Ki: 462 nM
5-HT2A receptor; calculated Ki, secondary binding assay, read-out: Ki 5-HT2A
  Ki: 400 nM

## O=C(NC1CC1)C(=O)C(Cc1ccccc1)NC(=O)[C@H]1CCC(=O)N1Cc1ccccc1 (stereo partly drawn) [UNC10302676A, ABT-957 (Alicapistat)]
CAPN2
  Reported on-target biochemical potency, CAPN2: 56 nM
[3]; 2.0 mg/kg
  AUClast: 35.6 µM·h
  CL: 7.8 mL/min/kg

## CNc1nc(C)nc(N[C@H]2CCC[C@@H](C(=O)NCc3ccc(C#N)cc3C(F)(F)F)C2)n1 [UNC10302679A, GSK2256294A]
EPHX2; published affinity, References for potency and dosing
  Reported on-target biochemical potency, EPHX2: 0.027 nM

## CCC(=O)N1CCC(NC(=O)Nc2ccc(OC(F)(F)F)cc2)CC1 [UNC10302681A, TPPU]
EPHX2
  Reported on-target biochemical potency, EPHX2: 3.7 nM
[4]
  Reported brain penetrance: brain penetrant
Human nerve cells
  Tau hyperphosphorylation: prevent tau hyperphosphorylation
[5]
  Tau hyperphosphorylation species (Ser396 and Ser404): reduction of tau hyperphosphorylation species

## CC(=O)N1CCC(NC(=O)NC23CC4CC(CC(C4)C2)C3)CC1 [UNC10302683A, AR9281]
[4]; in vivo
  Reported brain penetrance: brain penetrant

## MDL 28170 [UNC10302675A]
[6]; 30 μM for 24 hours
  Secretion of Aβ40 and Aβ42: did not inhibit
[6]; 30 μM, between 24 and 48 hours
  Levels of secreted Aβ40 and Aβ42: increased dramatically
[6]; concentrations < 5 μM, 48 hours
  Response in secreted Aβ40 or Aβ42: did not result in a response
CAPN2
  Reported on-target biochemical potency, CAPN2: 0.01 nM
